As usually defined, the EC50 is the concentration that produces a half-maximal response.

Format in all cases: biochemical
Experiment [1] has as its target T1, TYK2 (Homo sapiens, UniProt P29597).
T1 construct: JAK1 (aa 850-1154) and TYK2 (aa 871-1187) are expressed with an N-terminally fused GST-tag; GST (N); purchased Carna Biosciences, Inc; host or cells: baculovirus expression system
T1 sequence (P29597 871-1187): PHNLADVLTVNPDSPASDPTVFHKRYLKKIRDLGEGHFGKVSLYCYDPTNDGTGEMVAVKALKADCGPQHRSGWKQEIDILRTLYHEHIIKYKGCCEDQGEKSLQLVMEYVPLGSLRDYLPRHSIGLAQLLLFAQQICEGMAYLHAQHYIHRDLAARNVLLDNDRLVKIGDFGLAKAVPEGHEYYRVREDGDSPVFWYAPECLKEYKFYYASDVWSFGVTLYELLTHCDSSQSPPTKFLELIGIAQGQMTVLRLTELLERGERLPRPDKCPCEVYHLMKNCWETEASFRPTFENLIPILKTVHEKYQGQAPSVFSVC
Nature of the experiment: JAK kinase assay (HTRF, phosphorylation of synthetic peptide), TYK2. The following applies: catalytic domain, ATP at Km (13 μM); read-out: TYK2 kinase inhibitory activity (EC50). A digest of the protocol:
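1 µM biotinylated TK peptide at Km ATP in pH 7.0 Hepes, 20-30 min RT. EDTA stop; overnight streptavidin-XL665/cryptate HTRF read.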

Experiment [2] has as its target T2, JAK3 (Homo sapiens, UniProt P52333).
T2 construct: All four purified enzymes contain only the catalytic domain; His (N); purchased Carna Biosciences, Inc; host or cells: baculovirus expression system
Nature of the experiment: JAK kinase assay (HTRF, phosphorylation of synthetic peptide), JAK3. The following applies: catalytic domain, ATP at Km (2 μM); read-out: JAK3 kinase inhibitory activity (EC50). In general terms: Time-resolved FRET reads energy transfer from a long-lived donor to a nearby acceptor.

The target in experiment [3] is T3, JAK2 (Homo sapiens, UniProt O60674).
T3 construct: All four purified enzymes contain only the catalytic domain; His (N); purchased Carna Biosciences, Inc; host or cells: baculovirus expression system
T3 sequence (O60674 849-1124 limits assumed): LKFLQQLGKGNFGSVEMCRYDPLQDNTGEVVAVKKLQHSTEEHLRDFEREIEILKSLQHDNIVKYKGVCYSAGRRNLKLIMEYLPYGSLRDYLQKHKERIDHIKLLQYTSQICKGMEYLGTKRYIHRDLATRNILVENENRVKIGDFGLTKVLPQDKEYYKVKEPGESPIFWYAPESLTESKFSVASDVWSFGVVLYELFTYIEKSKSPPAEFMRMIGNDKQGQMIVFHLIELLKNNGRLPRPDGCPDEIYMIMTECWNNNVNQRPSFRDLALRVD
Nature of the experiment: JAK kinase assay (HTRF, phosphorylation of synthetic peptide), JAK2. The following applies: catalytic domain, ATP at Km (4 μM); read-out: JAK2 kinase inhibitory activity (EC50). A digest of the protocol: (§1)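 Catalytic-domain human JAK1 (GST-tagged, aa 850-1154) or His-tagged JAK2, baculovirus-expressed, phosphorylated 1 µM biotinylated TK peptide at Km ATP (JAK1 7 µM, 10 mM MgCl2, 50 nM SEB; JAK2 4 µM, 5 mM MgCl2) in pH 7.0 Hepes, 20-30 min RT. EDTA stop; overnight streptavidin-XL665/cryptate HTRF read.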

Experiment [4] concerns the target T4, JAK1 (Homo sapiens, UniProt P23458).
T4 construct: JAK1 (aa 850-1154) and TYK2 (aa 871-1187) are expressed with an N-terminally fused GST-tag; GST (N); purchased Carna Biosciences, Inc; host or cells: baculovirus expression system
Nature of the experiment: JAK kinase assay (HTRF, phosphorylation of synthetic peptide), JAK1. The following applies: catalytic domain, ATP at Km (7 μM); read-out: JAK1 kinase inhibitory activity (EC50). In outline:
as §1

T2 sequence (P52333 822-1111 limits assumed): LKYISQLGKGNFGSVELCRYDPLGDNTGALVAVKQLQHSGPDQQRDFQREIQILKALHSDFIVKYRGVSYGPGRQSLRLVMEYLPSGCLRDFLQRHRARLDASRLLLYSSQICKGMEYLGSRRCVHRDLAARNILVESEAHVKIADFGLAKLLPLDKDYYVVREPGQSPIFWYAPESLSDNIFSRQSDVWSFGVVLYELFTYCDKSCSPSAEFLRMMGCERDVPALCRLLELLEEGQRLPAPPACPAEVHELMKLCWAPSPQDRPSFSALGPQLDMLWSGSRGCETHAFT
T4 sequence (P23458 850-1154): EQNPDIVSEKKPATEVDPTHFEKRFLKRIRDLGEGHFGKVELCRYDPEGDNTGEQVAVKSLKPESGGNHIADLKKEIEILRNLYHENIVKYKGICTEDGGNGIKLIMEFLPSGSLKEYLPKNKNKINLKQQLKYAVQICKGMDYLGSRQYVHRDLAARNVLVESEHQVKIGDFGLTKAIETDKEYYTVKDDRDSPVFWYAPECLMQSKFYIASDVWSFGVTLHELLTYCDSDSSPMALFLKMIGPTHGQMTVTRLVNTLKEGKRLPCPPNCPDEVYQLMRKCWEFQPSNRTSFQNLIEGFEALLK

Regarding `CC(=O)N(CC1CCS(=O)(=O)CC1)S(=O)(=O)N1CCN(c2ncnc3[nH]ccc23)CC12CC2` [Example 173, N-[(1,1-dioxothian-4-yl)methyl]-N-[[5-(7H-pyrrolo[2,3-d]pyrimidin-4-yl)-5,8-diazaspiro[2.5]octan-8-yl]sulfonyl]acetamide], the concentration for a half-maximal effect (EC50) is 100 to 500 nM in experiment [1], less than 100 nM in experiment [2], less than 100 nM in experiment [3] and less than 100 nM in experiment [4].
Turning to `CN(OCc1ccccc1)S(=O)(=O)N1CCN(c2ncnc3[nH]ccc23)CC12CC2` [Example 174, N-benzyloxy-N-methyl-5-(7H-pyrrolo[2,3-d]pyrimidin-4-yl)-5,8-diazaspiro[2.5]octane-8-sulfonamide], the EC50 in experiment [1] is 100 to 500 nM; in experiment [2], 100 to 500 nM; in experiment [3], less than 100 nM; in experiment [4] it was less than 100 nM.
For the compound `O=S(=O)(NC[C@@H]1CCCN1Cc1ccccc1)N1CCN(c2ncnc3[nH]ccc23)CC12CC2` [Example 175, N-[[(2S)-1-benzylpyrrolidin-2-yl]methyl]-5-(7H-pyrrolo[2,3-d]pyrimidin-4-yl)-5,8-diazaspiro[2.5]octane-8-sulfonamide], the concentration for a half-maximal effect (EC50) in experiment [1] is 100 to 500 nM; in experiment [2] it was 100 to 500 nM; in experiment [3] it was less than 100 nM; in experiment [4], less than 100 nM.
Consider `O=CNS(=O)(=O)N1CCN(c2ncnc3[nH]ccc23)CC12CC2` [Example 176, N-[[5-(7H-pyrrolo[2,3-d]pyrimidin-4-yl)-5,8-diazaspiro[2.5]octan-8-yl]sulfonyl]formamide], for which the concentration giving a half-maximal response (EC50) in experiment [1] was greater than 500 nM; in experiment [2], 100 to 500 nM; in experiment [3], less than 100 nM; in experiment [4] it was less than 100 nM.
For the compound `CN(CC12C3C4C1C1C2C3C41C#N)S(=O)(=O)N1CCN(c2ncnc3[nH]ccc23)CC12CC2` (stereo not shown) [Example 177, N-[(4-cyanocuban-1-yl)methyl]-N-methyl-5-(7H-pyrrolo[2,3-d]pyrimidin-4-yl)-5,8-diazaspiro[2.5]octane-8-sulfonamide], the concentration giving a half-maximal response (EC50) in experiment [1], in experiment [2], in experiment [3] and in experiment [4] was less than 100 nM in each case.
`CN(C1CN(C(=O)CO)C1)S(=O)(=O)N1CCN(c2ncnc3[nH]ccc23)CC12CC2` [Example 178, N-[1-(2-hydroxyacetyl)azetidin-3-yl]-N-methyl-5-(7H-pyrrolo[2,3-d]pyrimidin-4-yl)-5,8-diazaspiro[2.5]octane-8-sulfonamide]: the EC50 in experiment [1] is 100 to 500 nM; in experiment [2] it was less than 100 nM; in experiment [3], less than 100 nM; in experiment [4], less than 100 nM.
Regarding `CN(C1CN(C(=O)CCO)C1)S(=O)(=O)N1CCN(c2ncnc3[nH]ccc23)CC12CC2` [Example 179, N-[1-(3-hydroxypropanoyl)azetidin-3-yl]-N-methyl-5-(7H-pyrrolo[2,3-d]pyrimidin-4-yl)-5,8-diazaspiro[2.5]octane-8-sulfonamide], the EC50 is 100 to 500 nM in experiment [1], 100 to 500 nM in experiment [2], less than 100 nM in experiment [3] and less than 100 nM in experiment [4].
`CN(C1CN(S(C)(=O)=O)C1)S(=O)(=O)N1CCN(c2ncnc3[nH]ccc23)CC12CC2` [Example 180, N-methyl-N-(1-methylsulfonylazetidin-3-yl)-5-(7H-pyrrolo[2,3-d]pyrimidin-4-yl)-5,8-diazaspiro[2.5]octane-8-sulfonamide]: the half-maximal effective concentration (EC50) in experiment [1], in experiment [2], in experiment [3] and in experiment [4] was less than 100 nM in each case.
With `CN(C[C@H]1CCCN1S(C)(=O)=O)S(=O)(=O)N1CCN(c2ncnc3[nH]ccc23)CC12CC2` [Example 181, N-methyl-N-[[(2R)-1-methylsulfonylpyrrolidin-2-yl]methyl]-5-(7H-pyrrolo[2,3-d]pyrimidin-4-yl)-5,8-diazaspiro[2.5]octane-8-sulfonamide], the 50% effective concentration (EC50) in experiment [1], in experiment [2], in experiment [3] and in experiment [4] was less than 100 nM each time.
As to `CN(C[C@H]1CCCN1S(=O)(=O)CCCC#N)S(=O)(=O)N1CCN(c2ncnc3[nH]ccc23)CC12CC2` [Example 182, N-[[(2R)-1-(3-cyanopropylsulfonyl)pyrrolidin-2-yl]methyl]-N-methyl-5-(7H-pyrrolo[2,3-d]pyrimidin-4-yl)-5,8-diazaspiro[2.5]octane-8-sulfonamide], the EC50 in experiment [1], in experiment [2], in experiment [3] and in experiment [4] was less than 100 nM in each case.
In the case of `CN(C[C@@H]1CCC(=O)N1)S(=O)(=O)N1CCN(c2ncnc3[nH]ccc23)CC12CC2` [Example 183, N-methyl-N-[[(2S)-5-oxopyrrolidin-2-yl]methyl]-5-(7H-pyrrolo[2,3-d]pyrimidin-4-yl)-5,8-diazaspiro[2.5]octane-8-sulfonamide], the half-maximal effective concentration (EC50) in experiment [1], in experiment [2], in experiment [3] and in experiment [4] was less than 100 nM each time.
In the case of `CN(C[C@H]1CCC(=O)N1)S(=O)(=O)N1CCN(c2ncnc3[nH]ccc23)CC12CC2` [Example 184, N-methyl-N-[[(2R)-5-oxopyrrolidin-2-yl]methyl]-5-(7H-pyrrolo[2,3-d]pyrimidin-4-yl)-5,8-diazaspiro[2.5]octane-8-sulfonamide], the EC50 in experiment [1], in experiment [2], in experiment [3] and in experiment [4] was less than 100 nM throughout.
With `CN(C[C@H]1CCCN1C(=O)CO)S(=O)(=O)N1CCN(c2ncnc3[nH]ccc23)CC12CC2` [Example 185, N-[[(2R)-1-(2-hydroxyacetyl)pyrrolidin-2-yl]methyl]-N-methyl-5-(7H-pyrrolo[2,3-d]pyrimidin-4-yl)-5,8-diazaspiro[2.5]octane-8-sulfonamide], the concentration giving a half-maximal response (EC50) in experiment [1], in experiment [2], in experiment [3] and in experiment [4] was less than 100 nM throughout.
For the compound `CN(C[C@H]1CCCN1C(=O)C(O)CO)S(=O)(=O)N1CCN(c2ncnc3[nH]ccc23)CC12CC2` (stereo partly drawn) [Example 186, N-[[(2R)-1-(2,3-dihydroxypropanoyl)pyrrolidin-2-yl]methyl]-N-methyl-5-(7H-pyrrolo[2,3-d]pyrimidin-4-yl)-5,8-diazaspiro[2.5]octane-8-sulfonamide], the half-maximal effective concentration (EC50) in experiment [1], in experiment [2], in experiment [3] and in experiment [4] was less than 100 nM each time.
With `CN(C[C@H]1CCCN1C(=O)CCC#N)S(=O)(=O)N1CCN(c2ncnc3[nH]ccc23)CC12CC2` [Example 187, N-[[(2R)-1-(3-cyanopropanoyl)pyrrolidin-2-yl]methyl]-N-methyl-5-(7H-pyrrolo[2,3-d]pyrimidin-4-yl)-5,8-diazaspiro[2.5]octane-8-sulfonamide], the concentration for a half-maximal effect (EC50) in experiment [1] is 100 to 500 nM; in experiment [2], 100 to 500 nM; in experiment [3], less than 100 nM; in experiment [4] it was less than 100 nM.
Take `CN(C[C@H]1CCCN1C=O)S(=O)(=O)N1CCN(c2ncnc3[nH]ccc23)CC12CC2` [Example 188, N-[[(2R)-1-formylpyrrolidin-2-yl]methyl]-N-methyl-5-(7H-pyrrolo[2,3-d]pyrimidin-4-yl)-5,8-diazaspiro[2.5]octane-8-sulfonamide]: the EC50 is 100 to 500 nM in experiment [1], less than 100 nM in experiment [2], less than 100 nM in experiment [3] and less than 100 nM in experiment [4].
